Laboratory results reported in patent US9642846B2, “Antifungal drugs” (GEORGETOWN UNIVERSITY, priority 2013, dated 2017).
Values after ≈ are worked out from the molar mass of the structure shown.

How the values were obtained:
[1] = test system: C. guilliermondii; test: MIC80 broth microdilution; type: cell-based, Candida guilliermondii; details: Meyerozyma guilliermondii, 80% growth inhibition, RPMI-1640
Text: (§1) Fluconazole, an ergosterol inhibitor, and the beta-1,3-glucan inhibitor micafungin served as controls (See Tables 1 and 2).
(§2) The minimum inhibitory concentrations resulting in 80% growth inhibition (MIC of multiple Candida species (Candida albicans, Candida tropicalis, Candida, guilliermondii, Candida glabrata, Candida lusitaniae, Candida parapsilois, Candida neoformans, Candida krusei, and Candida apicola) as well as Aspergillus fumigatus to a set of formula (II), (III), (IV), and (V) was determined in accordance with the guidelines in CLSI document M27-A2 (Clinical and Laboratory Standards Institute; Wayne, Pa.). The total volume of cells and drug was 100 μL per microtiter well, and each drug was diluted in RPMI to achieve final concentrations of 0.2-100 μg/ml. Uninoculated cultures were used as a reference standard. Stock inoculum suspensions were prepared from 24 hour cultures on YPD (yeast extract/peptone/dextrose) media at 30° C.
(§3) For MIC determinations, an inoculum of 1.0×10^3 cells of Candida and 2.0×10^3 cells of Aspergillus per well were used, and cells in diluted drugs were prepared in RPMI-1640 medium. MICs were determined both visually and spectrophotometrically at 24 hours and 48 h at 550 nm using a micro plate reader. The MIC80 endpoint was measured as the lowest drug concentration resulting in a reduction of growth of 80% or more compared with growth of the control.

[2] = test system: C. glabrata; test: MIC80 broth microdilution; type: cell-based, Candida glabrata; details: Nakaseomyces glabratus, 80% growth inhibition, RPMI-1640
Text: as §1, §2, §3

[3] = test system: C. parapsilosis; test: MIC80 broth microdilution; type: cell-based, Candida parapsilosis; details: Lodderomyces parapsilosis, 80% growth inhibition, RPMI-1640
Text: as §1, §2, §3

[4] = test system: C. lusitaniae; test: MIC80 broth microdilution; type: cell-based, Candida lusitaniae; details: Clavispora lusitaniae, 80% growth inhibition, RPMI-1640
Text: as §1, §2, §3

[5] = test system: C. apicola; test: MIC80 broth microdilution; type: cell-based, Candida apicola; details: Starmerella apicola, 80% growth inhibition, RPMI-1640
Text: as §1, §2, §3

[6] = test system: C. krusei; test: MIC80 broth microdilution; type: cell-based, Candida krusei; details: Pichia kudriavzevii, 80% growth inhibition, RPMI-1640
Text: as §1, §2, §3

[7] = test system: C. neoformans H99; test: MIC80 broth microdilution; type: cell-based, Candida neoformans; details: Cryptococcus neoformans, 80% growth inhibition, RPMI-1640
Text: as §1, §2, §3

[8] = test system: C. neoformans JEC-21; test: MIC80 broth microdilution; type: cell-based, Candida neoformans; details: Cryptococcus neoformans, JEC21, 80% growth inhibition, RPMI-1640
Text: as §1, §2, §3

[9] = test system: A. fumigatus AF293; test: MIC80 broth microdilution; type: cell-based; details: Aspergillus fumigatus, 80% growth inhibition, RPMI-1640
Text: as §1, §2, §3

[10] = test system: A. fumigatus H11-20; test: MIC80 broth microdilution; type: cell-based; details: Aspergillus fumigatus, H1120, 80% growth inhibition, RPMI-1640
Text: as §1, §2, §3

[11] = test system: C. albicans (CaMDR); test: MIC80 broth microdilution; type: cell-based; details: Candida albicans, read-out: Activity (MIC80)
Text: as §1, §2, §3

[12] = test system: C. albicans (SC5314); test: MIC80 broth microdilution; type: cell-based; details: Candida albicans, 80% growth inhibition, RPMI-1640, read at 24 and 48 h
Text: as §1, §2, §3

[13] = test system: C. tropicalis; test: MIC80 broth microdilution; type: cell-based; details: Candida tropicalis, 80% growth inhibition, RPMI-1640
Text: as §1, §2, §3

[14] = test system: MDR A. fumigatus; test: MIC80 broth microdilution; type: cell-based; details: Aspergillus fumigatus, 80% growth inhibition, RPMI-1640
Text: as §1, §2, §3

[15] = test system: HepG2 liver cell; test: MTT toxicity assay; type: cell-based, human; details: MTT after 24 hours and 48 hours
Description: (§4) The MTT assay is a colorimetric assay that measures the reduction of yellow 3-(4,5-dimethythiazol-2-yl)-2,5-diphenyl tetrazolium bromide (MTT) by mitochondrial succinate dehydrogenase. The MIT enters the cells and passes into the mitochondria where it is reduced to an insoluble, dark purple, formazan product. The cells are then solubilized with an organic solvent (e.g., isopropanol) and the released, solubilized formazan reagent is measured spectrophotometrically. Since reduction of MTT can only occur in metabolically active cells, the level of activity is a measure of the viability of the cells.
(§5) Cells of the HepG2 liver cell, NIH/3T3 fibrolast cell, or 293T kidney cell were seeded in a 96 well plate. The plate was incubated overnight at 37° C. in a humidified incubator, 5% CO2. Compounds of formula (II), (III), (IV), (V), and (VI) were added to the plate. Different concentrations of drug were tested in triplicate along with a negative control. The final volume was adjusted to 100 μl per well. The plate was incubated overnight at 37° C. in a humidified incubator, 5% CO2. After 24 hours and 48 hours, MTT reagent (5 mg/ml, 10 μl/100 μl per well of the 96 well plate) was added and incubated at 37° C. for 3 hours. After 3 hours, 100 μl of the DMSO solution was added to each well and the plate was rocked at room temperature for 1 hour. The plate was then read on a plate reader at […]. The results are shown below in tables 1 and 2.

[16] = test system: 293T kidney cell; test: MTT toxicity assay; type: cell-based; details: MTT after 24 hours and 48 hours
Description: as §4, §5

[17] = test system: NIH/3T3 Fibroblast cell; test: MTT toxicity assay; type: cell-based; details: MTT after 24 hours and 48 hours
Description: as §4, §5

[18] = test system: C. albicans (wild type); test: E-test of formula (II) and fluconazole; type: cell-based, Candida albicans; details: fluconazole E test strips on YPD plate, 48 h at 30° C.
Description: E test strips (Biomerieux) containing a graded series of fluconazole concentration are placed on a YPD plate that had been previously inoculated to confluency with C. albicans. The strip plate that was inoculated, is incubated for 48 h at 30° C. The zone of inhibition at the lowest concentration of fluconazole is read as the MIC. The results, shown in FIG. 2, indicate synergy between the compound of formula (II) and fluconazole.

Work on COc1cc2cc[n+]3c(C)c4cc5c(cc4cc3c2cc1OC)OCO5 [compound 156624] yielded an MIC80 [1] of 4 µg/mL, an MIC80 [2] of 1 µg/mL and an MIC80 [3] of 8 µg/mL. For the same compound, the MIC80 [4] was 1 µg/mL, the MIC80 [5] was 4 µg/mL and the MIC80 [6] was 4 µg/mL. It also gave an MIC80 [7] of 8 µg/mL, an MIC80 [8] of 1 µg/mL and an MIC80 [9] of 4 µg/mL. For the same compound, the MIC80 [10] was 4 µg/mL, the MIC80 [11] was 0.2 µg/mL and the MIC80 [12] was 4 µg/mL. The MIC80 [13] was 4 µg/mL, the MIC80 [14] was 4 µg/mL and the “toxicity (MTT)” value [15] was 80 µg/mL. For the same compound, the “toxicity (MTT)” value [16] was 80 µg/mL and the “toxicity (MTT)” value [17] was over 100 µg/mL.
In the case of Cc1c2cc3c(cc2cc2c4cc5c(cc4cc[n+]12)OCO5)OCO3 [compound 156627], the MIC80 [1] was 0.5 µg/mL, the MIC80 [2] was under 0.2 µg/mL and the MIC80 [3] was 1 µg/mL. For the same compound, the MIC80 [4] was under 0.2 µg/mL, the MIC80 [5] was 0.5 µg/mL and the MIC80 [6] was 0.5 µg/mL. The MIC80 [7] was 1 µg/mL, the MIC80 [8] was under 0.2 µg/mL and the MIC80 [9] was 0.5 µg/mL. The MIC80 [10] was 0.5 µg/mL, the MIC80 [11] was 0.05 µg/mL and the MIC80 [12] was 0.5 µg/mL. For the same compound, the MIC80 [13] was 0.5 µg/mL, the MIC80 [14] was 0.5 µg/mL and the “toxicity (MTT)” value [15] was 25 µg/mL. The “toxicity (MTT)” value [16] was 25 µg/mL, the “toxicity (MTT)” value [17] was 40 µg/mL and the “interaction with fluconazole (E-test)” value [18] was “synergy”.
OC(Cn1cncn1)(Cn1cncn1)c1ccc(F)cc1F [Fluconazole, reference compound] gave an MIC80 [1] of 2 µg/mL (≈ 6.53 µM), an MIC80 [2] of 2 µg/mL (≈ 6.53 µM) and an MIC80 [3] of 1 µg/mL (≈ 3.27 µM). It also gave an MIC80 [4] of 2 µg/mL (≈ 6.53 µM), an MIC80 [5] of 0.25 µg/mL (≈ 0.816 µM) and an MIC80 [6] of 32 µg/mL (≈ 104 µM). The MIC80 [7] was 4 µg/mL (≈ 13.1 µM), the MIC80 [8] was 2 µg/mL (≈ 6.53 µM) and the MIC80 [11] was 32 µg/mL (≈ 104 µM). The MIC80 [12] was 0.25 µg/mL (≈ 0.816 µM) and the MIC80 [13] was 0.5 µg/mL (≈ 1.63 µM).
For CCc1c2cc3c(cc2cc2c4cc5c(cc4cc[n+]12)OCO5)OCO3 [compound 157108], the MIC80 [1] was 2 µg/mL, the MIC80 [2] was 0.2 µg/mL and the MIC80 [3] was 2 µg/mL. For the same compound, the MIC80 [4] was 0.2 µg/mL, the MIC80 [5] was 1 µg/mL and the MIC80 [6] was 2 µg/mL. For the same compound, the MIC80 [7] was 2 µg/mL, the MIC80 [8] was 0.2 µg/mL and the MIC80 [9] was 1 µg/mL. For the same compound, the MIC80 [10] was 1 µg/mL, the MIC80 [11] was 0.2 µg/mL and the MIC80 [12] was 1 µg/mL. For the same compound, the MIC80 [13] was 2 µg/mL, the MIC80 [14] was 1 µg/mL and the “toxicity (MTT)” value [15] was 64 µg/mL. The “toxicity (MTT)” value [16] was 70 µg/mL and the “toxicity (MTT)” value [17] was 100 µg/mL.
Compound COc1cc2cc3c4cc5c(cc4cc[n+]3c(C)c2cc1OC)OCO5 [compound 160459] has an MIC80 [1] of 4 µg/mL, an MIC80 [2] of 0.5 µg/mL and an MIC80 [3] of 8 µg/mL. The MIC80 [4] was 1 µg/mL, the MIC80 [5] was 4 µg/mL and the MIC80 [6] was 4 µg/mL. It also gave an MIC80 [7] of 8 µg/mL, an MIC80 [8] of 0.5 µg/mL and an MIC80 [9] of 4 µg/mL. The MIC80 [10] was 4 µg/mL, the MIC80 [11] was 0.1 µg/mL and the MIC80 [12] was 4 µg/mL. For the same compound, the MIC80 [13] was 4 µg/mL, the MIC80 [14] was 4 µg/mL and the “toxicity (MTT)” value [15] was 50 µg/mL. For the same compound, the “toxicity (MTT)” value [16] was 60 µg/mL and the “toxicity (MTT)” value [17] was 80 µg/mL.
With COc1ccc2cc3c4cc5c(cc4cc[n+]3cc2c1OC)OCO5 [compound 403831] the MIC80 [1] was 1 µg/mL, the MIC80 [2] was 0.25 µg/mL and the MIC80 [3] was 2 µg/mL. It also gave an MIC80 [4] of 0.5 µg/mL, an MIC80 [5] of 1 µg/mL and an MIC80 [6] of 2 µg/mL. It also gave an MIC80 [7] of 0.5 µg/mL, an MIC80 [8] of 0.5 µg/mL and an MIC80 [9] of 1 µg/mL. The MIC80 [10] was 1 µg/mL, the MIC80 [11] was 0.1 µg/mL and the MIC80 [12] was 1 µg/mL. The MIC80 [13] was 1 µg/mL, the MIC80 [14] was 1 µg/mL and the “toxicity (MTT)” value [15] was 80 µg/mL. For the same compound, the “toxicity (MTT)” value [16] was 80 µg/mL and the “toxicity (MTT)” value [17] was 96 µg/mL.
CCC(C)n1ncn(-c2ccc(N3CCN(c4ccc(OCC5COC(Cn6cncn6)(c6ccc(Cl)cc6Cl)O5)cc4)CC3)cc2)c1=O (stereo not shown) [Itraconazole, reference compound] gave an MIC80 [9] of 0.5 µg/mL (≈ 0.709 µM), an MIC80 [10] of 0.5 µg/mL (≈ 0.709 µM) and an MIC80 [14] of over 100 µg/mL.
